# Target: SUV420H1 enzyme (Homo sapiens, UniProt Q4FZB7)
# Test: TR-FRET SAH SUV420H1 enzyme inhibition assay
# Assay type: biochemical
# Conditions: Histone Peptide H4(8-30)me1 and SAM, overnight at room temp, TR-FRET detection of SAH, read-out: TR-FRET SAH_SUV420H1 IC50
# How it was run: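 SUV420H1 (90 nM) preincubated 30 min with compound (3-fold dilutions, 50 to 0.00075 μM), then H4(8-30)me1 peptide 5 nM and SAM 4 nM added, overnight at room temp. SAH product detected by TR-FRET with Tb anti-SAH antibody and Oregon Green-SAH in RIPA buffer, 4 h; IC50 from Hill fit, asymptotes fixed 0-100%.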
# Sequence of SUV420H1 enzyme (Q4FZB7 whole entry): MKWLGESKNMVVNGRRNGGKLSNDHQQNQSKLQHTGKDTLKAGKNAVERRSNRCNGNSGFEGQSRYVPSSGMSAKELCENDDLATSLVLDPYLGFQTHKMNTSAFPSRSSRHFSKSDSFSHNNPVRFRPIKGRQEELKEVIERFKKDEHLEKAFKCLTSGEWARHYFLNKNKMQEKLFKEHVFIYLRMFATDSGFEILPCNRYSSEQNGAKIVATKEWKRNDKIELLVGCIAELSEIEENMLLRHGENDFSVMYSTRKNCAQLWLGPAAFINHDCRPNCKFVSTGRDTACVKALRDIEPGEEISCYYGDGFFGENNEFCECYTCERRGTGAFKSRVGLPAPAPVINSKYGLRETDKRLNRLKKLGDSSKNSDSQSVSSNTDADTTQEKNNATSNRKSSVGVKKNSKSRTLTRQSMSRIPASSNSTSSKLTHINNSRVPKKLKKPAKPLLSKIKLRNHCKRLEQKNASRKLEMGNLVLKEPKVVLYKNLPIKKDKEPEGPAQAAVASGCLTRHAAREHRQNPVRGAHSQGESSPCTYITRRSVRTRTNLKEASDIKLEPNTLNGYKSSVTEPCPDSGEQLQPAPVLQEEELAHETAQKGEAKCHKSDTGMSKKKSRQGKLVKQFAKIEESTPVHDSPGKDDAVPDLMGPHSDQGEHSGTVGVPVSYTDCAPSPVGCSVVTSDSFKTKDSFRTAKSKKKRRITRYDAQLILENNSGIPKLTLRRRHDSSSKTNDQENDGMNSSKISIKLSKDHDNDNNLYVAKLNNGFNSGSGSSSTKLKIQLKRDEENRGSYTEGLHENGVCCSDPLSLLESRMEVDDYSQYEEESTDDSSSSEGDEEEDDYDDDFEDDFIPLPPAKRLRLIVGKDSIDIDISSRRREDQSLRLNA
row,SMILES,IC50 [nM]
1,"Nc1ncnc2c1ncn2Cc1cc(Cl)cc2cc(CNC(=O)c3cscn3)[nH]c12 [Example 140, N-({7-[(6-amino-9H-purin-9-yl)methyl]-5-chloro-1H-indol-2-yl}methyl)-1,3-thiazole-4-carboxamide]",6090
2,"N#Cc1ccc(C(=O)NCc2cc3cc(Cl)cc(Cn4cnc5c(N)ncnc54)c3[nH]2)c(Cl)c1 [Example 276, N-({7-[(6-amino-9H-purin-9-yl)methyl]-5-chloro-1H-indol-2-yl}methyl)-2-chloro-4-cyanobenzamide]",39
3,"Nc1ncnc2c1ncn2Cc1cc(Cl)cc2cc(CNC(=O)CCN3CCCCC3)[nH]c12 [Example 135, N-({7-[(6-amino-9H-purin-9-yl)methyl]-5-chloro-1H-indol-2-yl}methyl)-3-(piperidin-1-yl)propanamide]",4540
4,"CS(=O)(=O)c1cccc(CNCc2cc3cc(Cl)cc(Cn4cnc5c(N)ncnc54)c3[nH]2)c1 [Example 262, 9-{[5-chloro-2-({[3-(methylsulfonyl)benzyl]amino}methyl)-1H-indol-7-yl]methyl}-9H-purin-6-amine]",2750
5,"CC(=O)NCc1cc2cc(Cl)cc(Cn3cnc4c(N)ncnc43)c2[nH]1 [Example 92, N-({7-[(6-amino-9H-purin-9-yl)methyl]-5-chloro-1H-indol-2-yl}methyl)acetamide]",> 50000
6,"CCC(=O)NCc1cc2cc(Cl)cc(Cn3cnc4c(N)ncnc43)c2[nH]1 [Example 94, N-({7-[(6-amino-9H-purin-9-yl)methyl]-5-chloro-1H-indol-2-yl}methyl)propanamide]",31100
7,"NCc1cc2cc(Cl)cc(Cn3cnc4c(N)ncnc43)c2[nH]1 [Example 9, 9-{[2-(aminomethyl)-5-chloro-1H-indol-7-yl]methyl}-9H-purin-6-amine]",1170
8,"NCc1cc2c(-c3ccc(F)cc3)ccc(Cn3cnc4c(N)ncnc43)c2[nH]1 [Example 73, 9-{[2-(aminomethyl)-4-(4-fluorophenyl)-1H-indol-7-yl]methyl}-9H-purin-6-amine]",722
9,"CCc1onc(C)c1C(=O)NCc1cc2cc(Cl)cc(Cn3cnc4c(N)ncnc43)c2[nH]1 [Example 185, N-({7-[(6-amino-9H-purin-9-yl)methyl]-5-chloro-1H-indol-2-yl}methyl)-5-ethyl-3-methyl-1,2-oxazole-4-carboxamide]",691
10,"CN(C)c1cccc(C(=O)NCc2cc3cc(Cl)cc(Cn4cnc5c(N)ncnc54)c3[nH]2)c1 [Example 309, N-({7-[(6-amino-9H-purin-9-yl)methyl]-5-chloro-1H-indol-2-yl}methyl)-3-(dimethylamino)benzamide]",7310
11,"Nc1ncnc2c1ncn2Cc1cc(Cl)cc2cc(C(N)Cc3ccccc3)[nH]c12 (stereo not drawn) [Example 206, 9-{[2-(1-amino-2-phenylethyl)-5-chloro-1H-indol-7-yl]methyl}-9H-purin-6-amine]",1050
12,"Nc1ncnc2c1ncn2Cc1cc(Cl)cc2cc(CNC(=O)c3cccc(O)n3)[nH]c12 [Example 197, N-({7-[(6-amino-9H-purin-9-yl)methyl]-5-chloro-1H-indol-2-yl}methyl)-6-hydroxypyridine-2-carboxamide]",1070
13,"CN1CCN(Cc2ccc(-c3cc(Cn4cnc5c(N)ncnc54)c4[nH]c(CN)cc4c3)cc2)CC1 [Example 54, 9-{[2-(aminomethyl)-5-{4-[(4-methylpiperazin-1-yl)methyl]phenyl}-1H-indol-7-yl]methyl}-9H-purin-6-amine]",1180
14,"N#Cc1ccc(C(=O)NCc2cc3cc(C4=CCOCC4)cc(Cn4cnc5c(N)ncnc54)c3[nH]2)c(F)c1 [Example 285, N-({7-[(6-amino-9H-purin-9-yl)methyl]-5-(3,6-dihydro-2H-pyran-4-yl)-1H-indol-2-yl}methyl)-4-cyano-2-fluorobenzamide]",57.9
15,"COc1cscc1C(=O)NCc1cc2cc(Cl)cc(Cn3cnc4c(N)ncnc43)c2[nH]1 [Example 158, N-({7-[(6-amino-9H-purin-9-yl)methyl]-5-chloro-1H-indol-2-yl}methyl)-4-methoxythiophene-3-carboxamide]",4750
16,"Cc1noc(N)c1C(=O)NCc1cc2cc(Cl)cc(Cn3cnc4c(N)ncnc43)c2[nH]1 [Example 155, 5-amino-N-({7-[(6-amino-9H-purin-9-yl)methyl]-5-chloro-1H-indol-2-yl}methyl)-3-methyl-1,2-oxazole-4-carboxamide]",3590
17,"CC(N)c1cc2cc(Cl)cc(Cn3cnc4c(N)ncnc43)c2[nH]1 (stereo not drawn) [Example 88, 9-{[2-(1-aminoethyl)-5-chloro-1H-indol-7-yl]methyl}-9H-purin-6-amine]",1430
18,"Nc1ncnc2c1ncn2Cc1cc(Cl)cc2cc(CNC(=O)c3ccccc3OC3CCOCC3)[nH]c12 [Example 321, N-({7-[(6-amino-9H-purin-9-yl)methyl]-5-chloro-1H-indol-2-yl}methyl)-2-(tetrahydro-2H-pyran-4-yloxy)benzamide]",8220

row,SMILES,IC50 [nM]
1,"Nc1ncnc2c1ncn2Cc1cc(Cl)cc2cc(CNC(=O)Cc3ccc(Cl)cc3)[nH]c12 [Example 251, N-({7-[(6-amino-9H-purin-9-yl)methyl]-5-chloro-1H-indol-2-yl}methyl)-2-(4-chlorophenyl)acetamide]",> 50000
2,"CC(C)C(=O)NCc1cc2cc(Cl)cc(Cn3cnc4c(N)ncnc43)c2[nH]1 [Example 99, N-({7-[(6-amino-9H-purin-9-yl)methyl]-5-chloro-1H-indol-2-yl}methyl)-2-methylpropanamide]",25100
3,"Cn1nc(C(=O)NCc2cc3cc(Cl)cc(Cn4cnc5c(N)ncnc54)c3[nH]2)c2c1CCC2 [Example 191, N-({7-[(6-amino-9H-purin-9-yl)methyl]-5-chloro-1H-indol-2-yl}methyl)-1-methyl-1,4,5,6-tetrahydrocyclopenta[c]pyrazole-3-carboxamide]",2980
4,"COc1ccc(-c2cc(Cn3cnc4c(N)ncnc43)c3[nH]c(CN)cc3c2)cn1 [Example 28, 9-{[2-(aminomethyl)-5-(6-methoxypyridin-3-yl)-1H-indol-7-yl]methyl}-9H-purin-6-amine]",426
5,"CN(C)c1ccc(C(=O)NCc2cc3cc(Cl)cc(Cn4cnc5c(N)ncnc54)c3[nH]2)cc1 [Example 302, N-({7-[(6-amino-9H-purin-9-yl)methyl]-5-chloro-1H-indol-2-yl}methyl)-4-(dimethylamino)benzamide]",> 50000
6,"Nc1ncnc2c1ncn2Cc1cc(Cl)cc2cc(CNC(=O)c3ccns3)[nH]c12 [Example 137, N-({7-[(6-amino-9H-purin-9-yl)methyl]-5-chloro-1H-indol-2-yl}methyl)-1,2-thiazole-5-carboxamide]",2040
7,"Cn1cccc1C(=O)NCc1cc2cc(Cl)cc(Cn3cnc4c(N)ncnc43)c2[nH]1 [Example 160, N-({7-[(6-amino-9H-purin-9-yl)methyl]-5-chloro-1H-indol-2-yl}methyl)-1-methyl-1H-pyrrole-2-carboxamide]",16800
8,"Nc1ncnc2c1ncn2Cc1cc(Cl)cc2cc(CNC(=O)c3ccc4nc[nH]c4n3)[nH]c12 [Example 330, N-({7-[(6-amino-9H-purin-9-yl)methyl]-5-chloro-1H-indol-2-yl}methyl)-3H-imidazo[4,5-b]pyridine-5-carboxamide]",1060
9,"Nc1ncnc2c1ncn2Cc1cc(Cl)cc2cc(CNCc3cccc(CN4CCCCC4)c3)[nH]c12 [Example 323, 9-{[5-chloro-2-({[3-(piperidin-1-ylmethyl)benzyl]amino}methyl)-1H-indol-7-yl]methyl}-9H-purin-6-amine]",345
10,"NCc1cc2c(-c3cccc(C(N)=O)c3)ccc(Cn3cnc4c(N)ncnc43)c2[nH]1 [Example 84, 3-{2-(aminomethyl)-7-[(6-amino-9H-purin-9-yl)methyl]-1H-indol-4-yl}benzamide]",569
11,"Cc1cc(C(=O)NCc2cc3cc(Cl)cc(Cn4cnc5c(N)ncnc54)c3[nH]2)n(C)n1 [Example 183, N-({7-[(6-amino-9H-purin-9-yl)methyl]-5-chloro-1H-indol-2-yl}methyl)-1,3-dimethyl-1H-pyrazole-5-carboxamide]",1780
12,"Nc1ncnc2c1ncn2Cc1cc(Cl)cc2cc(CNC(=O)C3CC3)[nH]c12 [Example 107, N-({7-[(6-amino-9H-purin-9-yl)methyl]-5-chloro-1H-indol-2-yl}methyl)cyclopropanecarboxamide]",10900
13,"NCc1cc2cc(-c3ccccc3)cc(Cn3cnc4c(N)ncnc43)c2[nH]1 [Example 22, 9-{[2-(aminomethyl)-5-phenyl-1H-indol-7-yl]methyl}-9H-purin-6-amine]",458
14,"NCc1cc2c(Cl)ccc(Cn3cnc4c(N)ncnc43)c2[nH]1 [Example 62, 9-{[2-(aminomethyl)-4-chloro-1H-indol-7-yl]methyl}-9H-purin-6-amine]",1120
15,"COc1ccc(CCC(=O)NCc2cc3cc(Cl)cc(Cn4cnc5c(N)ncnc54)c3[nH]2)cc1 [Example 315, N-({7-[(6-amino-9H-purin-9-yl)methyl]-5-chloro-1H-indol-2-yl}methyl)-3-(4-methoxyphenyl)propanamide]",4080
16,"N#Cc1ccccc1C(=O)NCc1cc2cc(Cl)cc(Cn3cnc4c(N)ncnc43)c2[nH]1 [Example 274, N-({7-[(6-amino-9H-purin-9-yl)methyl]-5-chloro-1H-indol-2-yl}methyl)-2-cyanobenzamide]",11300
17,"COc1ccccc1CNCc1cc2cc(Cl)cc(Cn3cnc4c(N)ncnc43)c2[nH]1 [Example 250, 9-[(5-chloro-2-{[(2-methoxybenzyl)amino]methyl}-1H-indol-7-yl)methyl]-9H-purin-6-amine]",4440
18,"Nc1ncnc2c1ncn2Cc1cc(Cl)cc2cc(CNC(=O)c3ccc4[nH]ccc4n3)[nH]c12 [Example 343, N-({7-[(6-amino-9H-purin-9-yl)methyl]-5-chloro-1H-indol-2-yl}methyl)-1H-pyrrolo[3,2-b]pyridine-5-carboxamide]",4820

# — patent US9932340B2, “Substituted indoles” (AbbVie Inc., priority 2014, dated 2018)
